Measured values from ChEMBL document CHEMBL1201862, “PubChem BioAssay data set” (2004).
Active and inactive are the calls of the source.

Experiments:
HeLa = assay: viability loss in HeLa cells – cell-based, 24 h, cherry-picked samples, cytotoxicity control, dose response (AID 504726); format: functional; conditions: Homo sapiens;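 further: potency for cytotoxicity as loss of luminescence signal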
ORF 73 = biological target: T1, ORF 73 (Human herpesvirus 8, UniProt O40947); assay: KSHV LANA DNA-binding disruption – biochemical, fluorescence polarization, cherry-picked samples, dose response (AID 504725); design: species or system Human gammaherpesvirus 8;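 further: fluorescence polarization of a labeled DNA duplex reporting LANA DNA binding; potency is for inhibitors that block LANA binding to the DNA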
T1 sequence (O40947 whole entry): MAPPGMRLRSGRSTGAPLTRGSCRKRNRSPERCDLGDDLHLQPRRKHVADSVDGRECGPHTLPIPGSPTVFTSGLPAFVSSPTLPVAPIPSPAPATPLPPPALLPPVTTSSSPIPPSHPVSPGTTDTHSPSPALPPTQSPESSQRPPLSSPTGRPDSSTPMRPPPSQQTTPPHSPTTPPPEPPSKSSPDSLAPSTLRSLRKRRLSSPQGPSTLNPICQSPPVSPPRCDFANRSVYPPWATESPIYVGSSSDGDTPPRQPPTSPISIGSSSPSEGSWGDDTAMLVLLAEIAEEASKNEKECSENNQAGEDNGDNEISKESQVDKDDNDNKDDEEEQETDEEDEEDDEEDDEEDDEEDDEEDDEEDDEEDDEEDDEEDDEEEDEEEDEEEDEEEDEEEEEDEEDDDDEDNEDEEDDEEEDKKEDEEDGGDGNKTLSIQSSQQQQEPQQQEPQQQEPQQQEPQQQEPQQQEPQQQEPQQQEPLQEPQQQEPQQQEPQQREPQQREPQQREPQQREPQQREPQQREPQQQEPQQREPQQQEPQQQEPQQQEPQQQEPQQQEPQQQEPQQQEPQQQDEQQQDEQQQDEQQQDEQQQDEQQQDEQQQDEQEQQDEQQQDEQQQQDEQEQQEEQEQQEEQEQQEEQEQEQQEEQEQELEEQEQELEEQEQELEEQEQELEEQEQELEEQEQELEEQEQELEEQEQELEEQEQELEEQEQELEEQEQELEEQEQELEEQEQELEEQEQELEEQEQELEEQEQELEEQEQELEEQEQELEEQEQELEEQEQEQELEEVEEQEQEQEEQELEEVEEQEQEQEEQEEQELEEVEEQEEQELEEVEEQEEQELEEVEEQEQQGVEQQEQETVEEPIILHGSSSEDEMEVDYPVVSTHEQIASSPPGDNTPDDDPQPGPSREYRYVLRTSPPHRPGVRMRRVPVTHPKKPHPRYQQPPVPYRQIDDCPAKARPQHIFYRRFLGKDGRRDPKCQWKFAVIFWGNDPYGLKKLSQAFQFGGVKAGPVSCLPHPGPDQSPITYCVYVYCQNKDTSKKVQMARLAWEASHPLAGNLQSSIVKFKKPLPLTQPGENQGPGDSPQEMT

[1] = biological target: Eukaryotic translation initiation factor 4E (Mus musculus, UniProt P63073); assay: blockers of eIF4G binding by eIF4E – biochemical, TR-FRET, dose response (AID 855); format: functional;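 further: potency for disrupting eIF4E binding to eIF4GI seen as loss of FRET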
Insulin-degrading enzyme [2] = biological target: T2, Insulin-degrading enzyme (Homo sapiens, UniProt P14735); assay: recombinant IDE activation, cell-free – biochemical, fluorescence polarization, counter-screen for IDE activator project, dose response (AID 588681)
T2 sequence (P14735 whole entry): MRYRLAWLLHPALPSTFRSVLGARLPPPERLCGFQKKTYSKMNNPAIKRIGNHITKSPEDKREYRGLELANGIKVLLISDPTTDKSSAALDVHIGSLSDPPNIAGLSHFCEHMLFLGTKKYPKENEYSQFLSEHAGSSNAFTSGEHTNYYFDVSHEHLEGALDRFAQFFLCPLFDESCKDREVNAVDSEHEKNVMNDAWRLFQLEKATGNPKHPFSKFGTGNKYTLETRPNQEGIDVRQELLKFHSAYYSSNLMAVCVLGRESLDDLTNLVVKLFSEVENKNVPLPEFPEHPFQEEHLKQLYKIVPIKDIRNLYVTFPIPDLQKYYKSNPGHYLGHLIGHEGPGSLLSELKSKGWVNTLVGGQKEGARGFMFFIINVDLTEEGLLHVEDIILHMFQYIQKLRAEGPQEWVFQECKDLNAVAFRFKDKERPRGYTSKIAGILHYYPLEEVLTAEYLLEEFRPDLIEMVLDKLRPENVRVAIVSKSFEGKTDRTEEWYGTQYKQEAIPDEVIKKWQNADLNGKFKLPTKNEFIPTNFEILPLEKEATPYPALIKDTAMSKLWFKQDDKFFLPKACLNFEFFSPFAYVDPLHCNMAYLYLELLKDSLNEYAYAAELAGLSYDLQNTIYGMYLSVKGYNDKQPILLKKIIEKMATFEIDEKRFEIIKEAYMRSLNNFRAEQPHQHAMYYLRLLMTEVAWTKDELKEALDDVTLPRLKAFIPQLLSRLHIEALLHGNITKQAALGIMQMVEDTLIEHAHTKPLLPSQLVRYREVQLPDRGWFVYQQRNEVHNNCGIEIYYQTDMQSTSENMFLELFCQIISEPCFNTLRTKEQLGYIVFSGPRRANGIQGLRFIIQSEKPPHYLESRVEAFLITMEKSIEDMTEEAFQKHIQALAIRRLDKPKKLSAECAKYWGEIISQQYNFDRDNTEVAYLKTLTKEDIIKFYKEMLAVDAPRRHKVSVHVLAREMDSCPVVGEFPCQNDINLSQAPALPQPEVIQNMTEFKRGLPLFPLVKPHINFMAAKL

Keap1/Nrf2 = Keap1/Nrf2 (Homo sapiens, UniProt Q14145); assay: disruptors of Keap1 binding to Nrf2 peptide – biochemical, fluorescence polarization, cherry-picked samples, dose response (AID 588683)
Insulin-degrading enzyme [3] = biological target: T2, Insulin-degrading enzyme; assay: cellular IDE activation of Abeta substrate cleavage – fluorescence polarization, HEK cells, dose response (AID 588439); format: functional, cell-based
HEK293 [4] = assay: membrane integrity loss in HEK cells – cell-based, fluorescence, cytotoxicity control for IDE activator project, dose response (AID 588440); format: functional; conditions: Homo sapiens;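 further: cytotoxicity by LDH release measuring loss of membrane integrity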
HEK293 [5] = assay: optical interference in Abeta FP readout, dose response, artefact control for IDE activator project, biochemical, fluorescence polarization (AID 588442); format: functional, cell-based; conditions: Homo sapiens
[6] = biological target: T3, Small ubiquitin-related modifier 2 (Homo sapiens, UniProt P61956); assay: disruption of SUMO2 interaction with SIM peptide – biochemical, fluorescence polarization, uHTS hits, selectivity assay for SUMO1 interaction inhibitor project, dose response (AID 624385); format: functional; conditions: read-out: IC50_Mean
[7] = biological target: T4, Small ubiquitin-related modifier 1 (Homo sapiens, UniProt P63165); assay: SUMO1 protein interaction blockers, potency – biochemical, fluorescence polarization, uHTS hits, dose response (AID 624382); format: functional; conditions: read-out: IC50_Mean
[8] = biological target: T3, Small ubiquitin-related modifier 2; assay: SUMO2 binding disruption by SUMO1 hits – biochemical, FRET, human SUMO2, uHTS hits, selectivity assay for SUMO1 interaction inhibitor project, dose response (AID 624384); format: functional; conditions: read-out: IC50_Mean
[9] = biological target: T4, Small ubiquitin-related modifier 1; assay: SUMO1 protein-protein binding blockers, potency – biochemical, FRET, dose response (AID 624383); format: functional; conditions: read-out: IC50_Mean
Caspase-6 = biological target: T5, Caspase-6 (Homo sapiens, UniProt P55212); assay: inhibition of CASP6 peptide cleavage – biochemical, VEID-R110 fluorescence, cherry-pick, dose response (AID 720632)
T5 sequence (P55212 whole entry): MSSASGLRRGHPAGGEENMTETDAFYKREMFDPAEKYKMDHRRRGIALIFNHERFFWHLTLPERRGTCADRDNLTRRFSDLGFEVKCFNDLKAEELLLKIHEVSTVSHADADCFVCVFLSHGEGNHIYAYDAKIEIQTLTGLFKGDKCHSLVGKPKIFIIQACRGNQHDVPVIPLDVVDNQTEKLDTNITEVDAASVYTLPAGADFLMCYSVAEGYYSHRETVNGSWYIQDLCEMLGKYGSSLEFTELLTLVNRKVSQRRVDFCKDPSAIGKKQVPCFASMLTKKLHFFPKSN

T3 sequence (P61956 whole entry): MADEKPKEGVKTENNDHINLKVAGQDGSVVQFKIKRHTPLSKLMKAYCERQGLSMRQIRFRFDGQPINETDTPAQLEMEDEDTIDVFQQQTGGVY
T4 sequence (P63165 whole entry): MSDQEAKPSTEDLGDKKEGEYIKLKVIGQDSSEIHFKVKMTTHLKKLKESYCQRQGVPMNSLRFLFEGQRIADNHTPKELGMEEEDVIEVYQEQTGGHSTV
Sequence of Keap1/Nrf2 (Q16236 whole entry): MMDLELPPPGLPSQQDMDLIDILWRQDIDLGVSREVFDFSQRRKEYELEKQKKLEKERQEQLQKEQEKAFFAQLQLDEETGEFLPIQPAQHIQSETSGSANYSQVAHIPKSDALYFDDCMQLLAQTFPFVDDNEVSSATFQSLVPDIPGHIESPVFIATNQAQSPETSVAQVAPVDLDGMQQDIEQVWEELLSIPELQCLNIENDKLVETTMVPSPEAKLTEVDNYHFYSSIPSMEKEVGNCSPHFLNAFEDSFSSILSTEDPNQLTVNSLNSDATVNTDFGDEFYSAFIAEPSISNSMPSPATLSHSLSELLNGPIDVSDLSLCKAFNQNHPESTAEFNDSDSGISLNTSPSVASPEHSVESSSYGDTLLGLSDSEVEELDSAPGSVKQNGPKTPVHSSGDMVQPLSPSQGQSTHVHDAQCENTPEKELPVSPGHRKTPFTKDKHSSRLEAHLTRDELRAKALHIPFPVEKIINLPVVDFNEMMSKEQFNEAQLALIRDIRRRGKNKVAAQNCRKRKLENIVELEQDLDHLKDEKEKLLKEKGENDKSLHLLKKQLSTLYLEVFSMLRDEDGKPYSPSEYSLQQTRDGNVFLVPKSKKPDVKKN
Sequence of Keap1/Nrf2 (Q14145 whole entry): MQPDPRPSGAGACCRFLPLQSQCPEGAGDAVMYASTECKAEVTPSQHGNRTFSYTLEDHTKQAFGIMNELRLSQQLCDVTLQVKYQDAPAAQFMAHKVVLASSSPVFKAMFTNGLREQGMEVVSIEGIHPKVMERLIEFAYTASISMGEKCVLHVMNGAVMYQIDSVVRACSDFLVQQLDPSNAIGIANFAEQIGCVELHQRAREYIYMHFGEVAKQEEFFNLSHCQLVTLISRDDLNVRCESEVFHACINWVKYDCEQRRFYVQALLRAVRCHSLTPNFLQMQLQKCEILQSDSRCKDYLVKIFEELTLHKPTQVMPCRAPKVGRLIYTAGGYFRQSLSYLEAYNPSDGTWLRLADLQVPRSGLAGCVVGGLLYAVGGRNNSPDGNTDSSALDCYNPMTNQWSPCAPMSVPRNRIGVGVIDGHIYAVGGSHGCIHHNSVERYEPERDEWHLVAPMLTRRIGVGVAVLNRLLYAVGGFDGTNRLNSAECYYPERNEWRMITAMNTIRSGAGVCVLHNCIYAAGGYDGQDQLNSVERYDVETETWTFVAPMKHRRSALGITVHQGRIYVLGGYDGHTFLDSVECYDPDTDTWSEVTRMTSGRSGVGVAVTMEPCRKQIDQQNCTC
Sequence of Eukaryotic translation initiation factor 4E (P63073 whole entry): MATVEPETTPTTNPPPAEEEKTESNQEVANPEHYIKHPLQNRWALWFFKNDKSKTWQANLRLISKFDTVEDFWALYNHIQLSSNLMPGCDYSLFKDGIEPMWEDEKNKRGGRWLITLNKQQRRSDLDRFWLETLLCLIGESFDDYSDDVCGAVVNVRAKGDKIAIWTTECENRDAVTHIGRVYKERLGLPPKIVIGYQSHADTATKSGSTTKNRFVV

Cc1cc2nc3c(=O)[nH]c(=O)[nH]c3nc2c([N+](=O)[O-])c1N
AC50 (HeLa): 150 µM (active)
AC50 (ORF 73): 3.99 µM (active)
IC50 [1]: 50 µM (inactive)
EC50 (Insulin-degrading enzyme [2]): > 54.7 µM (inactive)
AC50 (Keap1/Nrf2): 1.78 µM (active)
EC50 (Insulin-degrading enzyme [3]): > 54.7 µM (inactive)
IC50 (HEK293 [4]): > 89.3 µM (inactive)
EC50 (HEK293 [5]): 32.1 µM (inactive)
IC50 [6]: 2.48 µM (active)
IC50 [7]: 2.33 µM (active)
IC50 [8]: > 66 µM (inactive)
IC50 [9]: 51.7 µM (inactive)
AC50 (Caspase-6): 4.58 µM (active)
